For 15 molecules, TGI and GI50 results are on record in PubChem BioAssay (NCI).

What all share (assay): growth of human tumour cells (NCI), 48 h
Assay [1] concerns MDA-MB-435.
Assay [2] deals with UACC-257 melanoma.
Assay [3] deals with SK-MEL-5 melanoma.
Assay [4] concerns SK-MEL-2 melanoma.
Assay [5] has as its system A549 NSCLC.
Assay [6] has as its system NCI-H226 lung.
Assay [7] relates to TK-10 renal.
Assay [8] has as its system SF-268 CNS.
The test system of assay [9] is T-47D breast.
In assay [10] the test system is HL-60(TB) leukemia.

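48-hour exposure; five concentrations; linearly interpolated endpoints. GI50: concentration for 50% inhibition of growth. The concentration for full growth arrest is given as TGI.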 Where a SMILES comes first, the peptide text is derived from it. Bridges are numbered along the chain shown (N, C = ends). Roman numbers before positions name the chains, in order. [ ]: non-standard residue; d: D form. The star is where a group is joined. Heptadecanoyl = CCCCCCCCCCCCCCCCC(=O)*; Phg = N[CH](C(=O)O)c1ccccc1

Turning to `CCC(C)(C)c1ccc(Oc2cccc(C(=O)O)c2)cc1`, the TGI in [1], in [2], in assay [3], in [4], in assay [5] and in assay [6] was more than 100 µM in each case. The TGI in [7], in assay [8], in assay [9] and in [10] was more than 100 µM throughout.
`Cc1cccc(C(O)c2ccccn2)c1O` (stereo unspecified): the TGI in assay [1], in [2], in assay [3], in [5], in assay [6] and in [7] was more than 100 µM in each case. Also, the TGI in assay [8], in [9] and in assay [10] was more than 100 µM throughout.
For the molecule `CO[C@H]1C[C@H](O[C@H]2CC[C@]3(C=O)[C@H]4CC[C@]5(C)[C@@H](C6=CC(=O)OC6)CC[C@]5(O)[C@@H]4CC[C@]3(O)C2)O[C@H](C)[C@H]1O[C@@H]1O[C@H](CO[C@@H]2O[C@H](CO)[C@@H](O)[C@H](O)[C@H]2O)[C@@H](O)[C@H](O)[C@H]1O`, the TGI in [1] was 0.281 µM; in assay [2], 1.27 µM; in [3], 0.124 µM; in assay [4], 0.907 µM; in assay [5], 0.0254 µM; in assay [6] it was 0.32 µM. Moreover, the TGI in assay [7] was found to be 0.133 µM; in [8] it was 0.164 µM; in [9], 0.385 µM; in assay [10], 0.2 µM.
On to `CC1=C/C(=C(/c2ccc(O)c(C)c2)c2ccccc2C(=O)O)C=CC1=O`, for which the TGI was 33.3 µM in assay [1]; 35.8 µM in assay [2]; 34.9 µM in [3]; 38.5 µM in assay [4]; 35.3 µM in assay [5]; 44.5 µM in assay [6]. Moreover, the TGI in assay [7] was 31.1 µM; in assay [8], 57.1 µM; in [9], 72.1 µM; in [10] it was 43.6 µM.
For the molecule `N#CC(C#N)=Cc1ccc(-c2ccc(-c3nc4ccccc4s3)cc2)s1`, the GI50 in [1] is 25.5 µM; in assay [2], 65.3 µM; in [3], 11.8 µM; in assay [4] it was 33.1 µM; in assay [5], 13.8 µM; in assay [6], 14.7 µM. Also, the GI50 is 22.7 µM in assay [7], 25.5 µM in [8] and 18.2 µM in [9]. The TGI in assay [1] is 64.5 µM; in assay [2], more than 100 µM; in [3] it was 31.7 µM; in assay [4], more than 100 µM; in [5], more than 100 µM; in assay [6], 36.8 µM. Also, the TGI was 47.4 µM in assay [7], more than 100 µM in [8] and 73.8 µM in [9].
Consider `N.N.N.N.O=S(=O)([O-])[O-].[Co+3].[OH3+].[OH3+]`, for which the TGI in [2], in [3], in assay [4], in [5], in assay [7] and in assay [8] was more than 100 µM each time. The same molecule came in with a TGI in assay [10] of more than 100 µM.
As to `CCOC(=O)c1cc(Cl)ccc1OC(N)=O`, the TGI in [2], in assay [3], in assay [4], in assay [5], in [6] and in assay [8] was more than 100 µM in each case. Moreover, the TGI in [10] is more than 100 µM.
Consider `O=C(CN1C(=O)c2ccccc2C1=O)OCC1CCCN2CCCCC12` (stereo unspecified), for which the TGI in [1], in [2], in assay [3], in assay [4], in assay [5] and in assay [6] was more than 100 µM each time. The TGI in [7], in assay [8], in [9] and in assay [10] was more than 100 µM in each case.
`CN(C)C(=S)SCc1ccccc1`: the TGI in [1], in [2], in assay [3], in assay [4], in [5] and in assay [6] was more than 100 µM in each case. Besides, the TGI in assay [7] was more than 100 µM; in [8] it was more than 100 µM; in assay [9] it was 60.6 µM; in [10], more than 100 µM.
Regarding `C(=N/Nc1ccccn1)/c1cccnc1`, the TGI in assay [1], in assay [2], in assay [3], in assay [4], in [5] and in assay [6] was more than 100 µM each time. Further, the TGI in [7], in assay [8], in assay [9] and in [10] was more than 100 µM each time.
On to `Clc1ccc(CSCc2ccc(Cl)cc2Cl)c(Cl)c1`, for which the TGI was more than 100 µM in [1]; 64.7 µM in assay [2]; 97.9 µM in assay [3]; 51.3 µM in [4]; more than 100 µM in assay [5]; more than 100 µM in assay [6]. Besides, the TGI in assay [7], in assay [8], in assay [9] and in assay [10] was more than 100 µM each time.
As for `CC(C)(C)C1=NN=C2c3ccccc3C(=O)C21` (stereo unspecified), the TGI in assay [1] was more than 100 µM; in [2] it was more than 100 µM; in assay [3], 54.3 µM; in [4], more than 100 µM; in [5], more than 100 µM; in [6], more than 100 µM. For the same molecule, the TGI in [7], in assay [8], in [9] and in assay [10] was more than 100 µM throughout.
Turning to `C/C(=C\c1ccc2c(c1)OCO2)[N+](=O)[O-]`, the TGI in [1] was 5.34 µM; in [2] it was 5.54 µM; in assay [3] it was 3.93 µM; in assay [4], 5.49 µM; in assay [5], more than 100 µM; in [6], 28.6 µM. Also, the TGI in [7] was 8.63 µM; in assay [8], 10.7 µM; in assay [9], 5.14 µM; in assay [10], 5.73 µM.
Turning to `O=C1c2ccc3ccccc3c2CCC1N1CCCCC1` (stereo unspecified), the TGI amounted to 32.3 µM in assay [1]; 35 µM in assay [2]; 30.7 µM in assay [3]; 44.4 µM in assay [4]; 36.3 µM in [5]; 31.4 µM in assay [6]. The TGI in assay [7] is 29.6 µM; in [8], 39.7 µM; in [9], 54.3 µM; in assay [10], 49.6 µM.
Regarding `CCCCCCCCCCCCCCCCC(=O)N1CCCC1C(=O)NCC(=O)NC(C(=O)N1CCCC1C(=O)NC(CO)C(=O)NC(Cc1ccc(O)cc1)C(=O)NC(CCCCNC(=O)C1CCCN1C(=O)C(CCCCN)NC(=O)C(CCCCN)NC(=O)C(CCCCN)NC(=O)C(CCCNC(=N)N)NC(=O)C(CCCCN)NC(=O)C(N)C(C)C)C(=O)NC(CC(C)C)C(=O)NC(CCCNC(=N)N)C(=O)N1CCCC1C(=O)NCC(N)=O)c1ccccc1` (stereo unspecified) (I: Heptadecanoyl-PG[Phg]PSYKLRPG-NH2 / II: H-VKRKKKP; amide I:7-II:C; configuration not given here), the GI50 in [1] is 18.9 µM; in [2] it was 12.2 µM; in assay [3], 31.3 µM; in [4], 50.3 µM; in assay [5], 23.9 µM; in assay [6] it was 22.1 µM. The GI50 in assay [7] is 26.5 µM; in assay [8], 15 µM; in assay [9] it was 5.38 µM; in assay [10], 21.3 µM. Moreover, the TGI in [1] was 83.9 µM; in assay [2], 62.9 µM; in assay [3] it was more than 100 µM; in assay [4], more than 100 µM; in assay [5], 53.3 µM; in [6] it was 49.3 µM. Besides, the TGI was 66.6 µM in assay [7], more than 100 µM in assay [8], 70.7 µM in [9] and more than 100 µM in assay [10].
